Molecular target: AmpC β-lactamase (Escherichia coli, UniProt P00811)
Type: biochemical
Settings: for Km: AmpC substrate

AmpC β-lactamase, sequence (P00811 20-377): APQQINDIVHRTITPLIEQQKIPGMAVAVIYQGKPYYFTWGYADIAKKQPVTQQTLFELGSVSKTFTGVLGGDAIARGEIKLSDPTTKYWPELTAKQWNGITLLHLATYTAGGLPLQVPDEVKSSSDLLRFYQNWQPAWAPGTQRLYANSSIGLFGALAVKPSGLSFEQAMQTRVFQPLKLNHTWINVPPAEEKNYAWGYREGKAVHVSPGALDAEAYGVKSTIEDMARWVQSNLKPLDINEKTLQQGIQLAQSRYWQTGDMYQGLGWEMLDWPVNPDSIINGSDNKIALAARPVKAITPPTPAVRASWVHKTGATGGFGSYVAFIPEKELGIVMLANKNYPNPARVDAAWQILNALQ

| Structure (SMILES) | Km | Ki (Fig. 1 legend, crystallised inhibitors) |
| --- | --- | --- |
| O=C(Cc1cccs1)N[C@@H]1C(=O)N2C(C(=O)O)=C(CSc3ccc([N+](=O)[O-])c(C(=O)O)c3)CS[C@H]12 [CENTA] | 27.6 µM |  |
| O=S(=O)(Nc1ccc(F)c2cnccc12)c1cc(Cl)cc(Cl)c1O [Z6615020275] |  | 2000 nM |
| O=C(Cc1cccs1)N[C@@H]1C(=O)N2C(C(=O)O)=C(/C=C/c3ccc([N+](=O)[O-])cc3[N+](=O)[O-])CS[C@H]12 [nitrocefin] | 180 µM |  |

From article PMC11257449 (bioRxiv, 2024)
